Measured values reported in article PMC10095864, “Targeting HIV-1 Reverse Transcriptase Using a Fragment-Based Approach” (Molecules, 2023).
Read-outs that look alike come from different tables or passages of the source.

Columns and labels:
[1] = tested on: NNRTI-binding pocket (NNIBP) of HIV-1 RT; parameters: method as in PMID 24002095; details: cited from earlier work
recombinant WT HIV-1 RT = biological target: T1, recombinant WT HIV-1 RT (Human immunodeficiency virus type 1 group M subtype B, UniProt P03367); test: biochemical; details: for IC50: RT Inhibition—IC50 ± SEM, WT, WT RT DDDP activity, PicoGreen or 33P radiolabeled assay, value not marked as PicoGreen, n ≥ 2; for Ligand efficiency (LE): binding to WT RT, LE = −1.4(logIC50)/N
T1 construct: The p66/p51 HIV-1 RT heterodimer engineered with a N-terminal histidine tag; His tag (histidine tag) (N); made in house; host or cells: Escherichia coli strain M15 (vector pRT6H-PR)
Experimental: (§1) The inhibitory activity of all compounds was evaluated in vitro in assays that measure the DNA-dependent DNA polymerase (DDDP) activity of HIV-1 RT. Compounds were tested against recombinant WT and drug-resistant HIV-1 RT mutants (K103N, Y181C or K103N/Y181C). […] The IC50 value of nevirapine was determined in parallel to control for the performance of the assay. […] These RT mutations either reduce the rate of entry of NNRTIs to the binding pocket (K103N) or remove aromatic interactions that favor binding (Y181C). Initially, compound IC50 values were determined in an assay that quantifies DDDP activity mediated by HIV-1 RT using a radiolabeled ^33PdTTP substrate and more recently using a nonradioactive PicoGreen-based spectrophotometric assay.
(§2) Recombinant HIV-1 RT: The p66/p51 HIV-1 RT heterodimer engineered with a N-terminal histidine tag was expressed from the pRT6H-PR vector (provided by Nicolas Sluis-Cremer) which is based on pRT6H-PROT [37], except that the RT coding region is derived from the infectious molecular clone xxLAI [38]. This xxLAI clone contains the HIV-1LAI backbone and is engineered with silent mutations introducing Xma I and Xba I sites in the RT coding region at nucleotide positions 40–45 and 1470 to 1475, respectively. pRT6H-PR expressing the NNRTI drug-resistant mutations K103N, Y181C and K103N/Y181C were generated by subcloning Xma I/Xba I fragments in xxLAI harboring the desired NNRTI mutations (Giacobbi NS and Sluis-Cremer 2017 AAC) into the corresponding restriction sites in the RT coding region of p6HRT-PR. RT was expressed in Escherichia coli strain M15 and purified using Ni-NTA chromatography as previously described. RT concentrations were determined spectrophotometrically at 280 nm using an extinction coefficient (e280) of 260, 450 M^−1 cm^−1.
(§3) Nevirapine was included in assays as a positive control for inhibiting RT polymerase activity. The DDDP assay was performed by first adding 25 ng of HIV-1 RT to test compound in 96-well plates followed by initiating RT polymerase activity by adding 200 ng of activated calf thymus (ACT) DNA (Sigma Aldrich), 0.2 µCi ^33P-α-dTTP (Perkin Elmer), 50 mM Tris-HCl pH 7.8 50 mM KCl, […], 50 µM dNTP mix (Bioline), 0.1 mg/mL bovine serum albumin (New England Biolabs), 0.01% IGEPAL (Sigma) and 1 mM dithiothreitol. Reactions contained 2.5% dimethyl sulfoxide (DMSO). Following incubation at 37 °C for 10 min, samples from duplicate wells were applied to Whatman DE81 ion-exchange paper (GE Healthcare); dried membranes were washed in 2X saline-sodium citrate (SSC) buffer; and incorporated counts were quantified using an FLP-2000 phosphorimager (Fujifilm) or Typhoon Trio Phosphorimager (GE Healthcare) as published. Dose–response curves were generated using PRISM GraphPad version 8 by plotting the log transformed drug concentrations against percentage inhibition of DDDP activity compared to the no drug control using non-linear regression analysis.
(§4) Non-radioactive DDDP Assay: DDDP assays were also performed using a PicoGreen based spectrophotometric assay to detect double-stranded DNA synthesized by recombinant HIV-1 RT [15]. Assays were performed as described for the […] DDDP assay except that instead of ACT, the reaction contained 40 nM of a template/primer comprising a 200 nt DNA template (5′-[…] […]-3′) annealed to a 18 nucleotide DNA primer (5′-[…]-3′), 50 mM Tris-HCl pH 7.8, 50 mM KCl, 10 mM MgCl2 and 50 µM dNTP mix.

HIV-1 RT K103N mutant = biological target: T2, HIV-1 RT K103N mutant (Human immunodeficiency virus type 1 group M subtype B, UniProt P03367, K702N); test: DDDP activity assay, K103N RT mutant; assay type: biochemical; details: PicoGreen or 33P radiolabeled assay, n ≥ 2, read-out: RT Inhibition—IC50 ± SEM, K103N
T2 construct: The p66/p51 HIV-1 RT heterodimer engineered with a N-terminal histidine tag; His tag (histidine tag) (N); made in house; host or cells: Escherichia coli strain M15 (vector pRT6H-PR)
Experimental: as §1
Recombinant HIV-1 RT: The p66/p51 HIV-1 RT heterodimer engineered with a N-terminal histidine tag was expressed from the pRT6H-PR vector (provided by Nicolas Sluis-Cremer) which is based on pRT6H-PROT [37], except that the RT coding region is derived from the infectious molecular clone xxLAI [38]. […] RT concentrations were determined spectrophotometrically at 280 nm using an extinction coefficient (e280) of 260, 450 M^−1 cm^−1. […]

HIV-1 RT Y181C mutant = biological target: T3, HIV-1 RT Y181C mutant (Human immunodeficiency virus type 1 group M subtype B, UniProt P03367, Y780C); test: DDDP activity assay, Y181C RT mutant; assay type: biochemical; details: PicoGreen or 33P radiolabeled assay, n ≥ 2, read-out: RT Inhibition—IC50 ± SEM, Y181C
T3 construct: The p66/p51 HIV-1 RT heterodimer engineered with a N-terminal histidine tag; His tag (histidine tag) (N); made in house; host or cells: Escherichia coli strain M15 (vector pRT6H-PR)
Experimental: as §1
Recombinant HIV-1 RT: The p66/p51 HIV-1 RT heterodimer engineered with a N-terminal histidine tag was expressed from the pRT6H-PR vector (provided by Nicolas Sluis-Cremer) which is based on pRT6H-PROT [37], except that the RT coding region is derived from the infectious molecular clone xxLAI [38]. […] RT concentrations were determined spectrophotometrically at 280 nm using an extinction coefficient (e280) of 260, 450 M^−1 cm^−1.
Nevirapine was included in assays as a positive control for inhibiting RT polymerase activity. […] Following incubation at 37 °C for 10 min, samples from duplicate wells were applied to Whatman DE81 ion-exchange paper (GE Healthcare); dried membranes were washed in 2X saline-sodium citrate (SSC) buffer; and incorporated counts were quantified using an FLP-2000 phosphorimager (Fujifilm) or Typhoon Trio Phosphorimager (GE Healthcare) as published. […]

His-tagged HIV-1 RT WT = biological target: T4, His-tagged HIV-1 RT WT (Human immunodeficiency virus type 1 group M subtype B, UniProt P03367); test: Surface plasmon resonance, WT RT; assay type: binding
T4 construct: The p66/p51 HIV-1 RT heterodimer engineered with a N-terminal histidine tag; His tag (histidine tag) (N); made in house; host or cells: Escherichia coli strain M15 (vector pRT6H-PR)
Experimental: (§5) Compound binding to recombinant HIV-1 RT was measured by surface plasmon resonance (SPR). SPR is an optical biosensor detection method that involves passing an analyte (often a fragment) in a buffer solution over a gold surface chip with an immobilized protein (RT enzyme) and detecting the change in plasmon resonance angle which is dependent on the refractive index of the medium near the surface. As compounds bind to the target protein, the refractive index changes proportionally to the extent of binding. This can then be used to measure the association and dissociation kinetics of binding as well as the compound’s affinity for binding.
(§6) SPR assays were performed on a Biacore S200 (GE Healthcare). His-tagged RT (WT, K103N, Y181C or K103N/Y181C) was immobilized on the surface of a Biacore compatible NIHC 1500M (Xantec) chip according to manufacturer’s instructions. Following 3 injections 300 s each of 0.5 M EDTA, the chip surface was activated with a 120 s injection of 5 mM NiCl2 followed by a 2100 s injection of 130 nM RT. The final immobilization level of RT was typically 14,000–27,000 RU. SPR experiments were carried out at 25 °C using a flow rate of 50 µL/min in running buffer. The running buffer was 1.053 × (HBS pH 7.4 + 50 µM EDTA + 0.005% Tween-20). Compounds were provided as 200 mM stocks and diluted in running buffer to obtain the concentrations required for dose-response studies (0, 6.25, 12.5, 25, 50, 100 and 200 µM). Raw sensorgram data were analyzed using Biacore S200 Evaluation Software. Dose-response determinations were evaluated using a 1:1 binding model. KD values were determined by Biacore S200 Evaluation Software Version 1.0. assuming 1:1 binding. For compounds approaching saturation, Rmax was floated. For compounds with insufficient curvature, Rmax was fixed based on a control. Errors were determined as the standard error in the dose-response fit, as calculated by Biacore S200 Evaluation Software.

[2] = biological target: T5, His-tagged HIV-1 RT K103N (Human immunodeficiency virus type 1 group M subtype B, UniProt P03367, K702N); test: Surface plasmon resonance, K103N RT; details: ± standard error of dose–response fit, n = 1; NB = no binding observed; read-out: SPR—KD, K103N
T5 construct: The p66/p51 HIV-1 RT heterodimer engineered with a N-terminal histidine tag; His tag (histidine tag) (N); made in house; host or cells: Escherichia coli strain M15 (vector pRT6H-PR)
Experimental: as §5, §6

[3] = biological target: T6, His-tagged HIV-1 RT Y181C (Human immunodeficiency virus type 1 group M subtype B, UniProt P03367, Y780C); test: Surface plasmon resonance, Y181C RT; details: ± standard error of dose–response fit, n = 1; NB = no binding observed; read-out: SPR—KD, Y181C
T6 construct: The p66/p51 HIV-1 RT heterodimer engineered with a N-terminal histidine tag; His tag (histidine tag) (N); made in house; host or cells: Escherichia coli strain M15 (vector pRT6H-PR)
Experimental: as §5
(§7) SPR assays were performed on a Biacore S200 (GE Healthcare). His-tagged RT (WT, K103N, Y181C or K103N/Y181C) was immobilized on the surface of a Biacore compatible NIHC 1500M (Xantec) chip according to manufacturer’s instructions. Following 3 injections 300 s each of 0.5 M EDTA, the chip surface was activated with a 120 s injection of 5 mM NiCl2 followed by a 2100 s injection of 130 nM RT. […] Raw sensorgram data were analyzed using Biacore S200 Evaluation Software. Dose-response determinations were evaluated using a 1:1 binding model. KD values were determined by Biacore S200 Evaluation Software Version 1.0. assuming 1:1 binding. […] Errors were determined as the standard error in the dose-response fit, as calculated by Biacore S200 Evaluation Software.

[4] = biological target: T7, HIV-1 RT K103N/Y181C mutant (Human immunodeficiency virus type 1 group M subtype B, UniProt P03367, K702N/Y780C); test: DDDP activity assay, K103N/Y181C RT mutant; assay type: biochemical
T7 construct: The p66/p51 HIV-1 RT heterodimer engineered with a N-terminal histidine tag; His tag (histidine tag) (N); made in house; host or cells: Escherichia coli strain M15 (vector pRT6H-PR)
Experimental: as §1, §2, §3, §4

[5] = tested on: HIV-1 RT K103N/Y181C mutant; test: DDDP activity assay, K103N/Y181C RT mutant; assay type: biochemical; details: nonsignificant
Experimental: as §1, §2, §3, §4

[6] = biological target: T8, His-tagged HIV-1 RT K103N/Y181C (Human immunodeficiency virus type 1 group M subtype B, UniProt P03367, K702N/Y780C); test: Surface plasmon resonance, K103N/Y181C RT; assay type: binding
T8 construct: The p66/p51 HIV-1 RT heterodimer engineered with a N-terminal histidine tag; His tag (histidine tag) (N); made in house; host or cells: Escherichia coli strain M15 (vector pRT6H-PR)
Experimental: as §5, §7

[7] = tested on: His-tagged HIV-1 RT K103N/Y181C; test: Surface plasmon resonance, K103N/Y181C RT; assay type: binding; details: SPR
Experimental: as §5, §7

[8] = tested on: HIV-1 RT (WT RT construct RT35A); details: assay detects inhibition of both DNA polymerase and RNase H activity; read-out: IC50 (Bauman et al.); cited from earlier work

For `Cc1cc(/C=C/C#N)cc(C)c1Nc1ccnc(Nc2ccc(C#N)cc2)n1` [Rilpivirine, rilpivirine], the “affinity for the NNIBP” value [1] is given as 0.73 nM.

With `CCOC(=O)c1cnn2cccc(Br)c12` [compound 6, Ethyl 4-Bromopyrazolo[1,5-a]pyridine-3-carboxylate] the IC50 (recombinant WT HIV-1 RT) was 159 ± 29 µM, the “Ligand efficiency (LE)” value (recombinant WT HIV-1 RT) was 0.35 kcal/mol/HA and the IC50 (HIV-1 RT K103N mutant) was 846 ± 42 µM. The IC50 (HIV-1 RT Y181C mutant) was 850 ± 187 µM, the Kd (His-tagged HIV-1 RT WT) was 598 ± 15 µM and the Kd [2] was 1400 ± 45 µM. The Kd [3] was 1190 ± 47 µM.

With `CCOC(=O)c1cnn2ccc(N)cc12` [compound 8, Ethyl 5-Aminopyrazolo[1,5-a]pyridine-3-carboxylate] the IC50 (recombinant WT HIV-1 RT) was > 1000 µM, the Kd (His-tagged HIV-1 RT WT) was 522 ± 27 µM and the Kd [2] was 621 ± 36 µM. The Kd [3] was 610 ± 32 µM.

With `CCOC(=O)c1cnn2cccc(C#CC3CC3)c12` [compound 27, Ethyl 4-(Cyclopropylethynyl)pyrazolo[1,5-a]pyridine-3-carboxylate] the “fold improvement on parent compound B-1” value (recombinant WT HIV-1 RT; IC50 vs B-1 IC50 >1000 μM in the radioactive RT assay) was > 20 fold, the IC50 (recombinant WT HIV-1 RT) was 11 ± 1 µM and the “Ligand efficiency (LE)” value (recombinant WT HIV-1 RT) was 0.37 kcal/mol/HA. For the same compound, the IC50 [4] was 34 ± 8 µM, the “fold decrease in susceptibility, K103N/Y181C mutant compared to WT RT” value [5] was 3.0 fold and the Kd (His-tagged HIV-1 RT WT) was 79 ± 7 µM. The Kd [2] was 187 ± 15 µM, the Kd [6] was 187 ± 15 µM and the “fold decrease in binding, K103N/Y181C double mutant vs WT” value [7] was 2–3 fold.

For `CCOC(=O)c1cnn2ccccc12` [compound B-1, ethyl pyrazolo[1,5-a]pyridine-3-carboxylate, reference compound], the IC50 [4] is listed as 208 µM, the Kd (His-tagged HIV-1 RT WT; read-out: SPR—KD, WT, ± standard error of dose–response fit, n = 1, NB = no binding observed) is listed as > 200 µM and the IC50 [8] is listed as 350 µM.
